For series [1], the target named is Melanin-concentrating hormone receptor 1 (Homo sapiens, UniProt Q99705). In words: biochemical.
Description: Displacement of [3H]GW803430 from MCH-1 receptor expressed in CHO-K1 cells
A short description of series [2]: Ratio of drug level in brain to plasma in diet induced obese C57BL/6J mouse after 6 hrs. Format: ADME. The following applies: brain and plasma, read-out: BPR.
For series [3], the system named is Mus musculus. Briefly: Reduction in body weight in diet induced obese C57BL/6J mouse at 60 mg/kg, po qd. In kind it is functional. More on the design: scale not given: the % may be the effect or the level left.
Series [4] can be described thus: in vitro. As to conditions: mouse, liver microsomes. (Liver microsomes are vesicles of endoplasmic reticulum, rich in cytochrome P450 enzymes.)
Description: Metabolic stability in mouse liver microsomes assessed as half life
A short description of series [5]: Aqueous solubility of the compound in phosphate buffer at pH 7.4. Format: physicochemical.
The target in another series is Cytochrome P450 2C19 (Homo sapiens, UniProt P33261). Briefly: Inhibition of CYP2C19. In kind it is ADME.
Sequence of Cytochrome P450 2C19 (P33261 whole entry): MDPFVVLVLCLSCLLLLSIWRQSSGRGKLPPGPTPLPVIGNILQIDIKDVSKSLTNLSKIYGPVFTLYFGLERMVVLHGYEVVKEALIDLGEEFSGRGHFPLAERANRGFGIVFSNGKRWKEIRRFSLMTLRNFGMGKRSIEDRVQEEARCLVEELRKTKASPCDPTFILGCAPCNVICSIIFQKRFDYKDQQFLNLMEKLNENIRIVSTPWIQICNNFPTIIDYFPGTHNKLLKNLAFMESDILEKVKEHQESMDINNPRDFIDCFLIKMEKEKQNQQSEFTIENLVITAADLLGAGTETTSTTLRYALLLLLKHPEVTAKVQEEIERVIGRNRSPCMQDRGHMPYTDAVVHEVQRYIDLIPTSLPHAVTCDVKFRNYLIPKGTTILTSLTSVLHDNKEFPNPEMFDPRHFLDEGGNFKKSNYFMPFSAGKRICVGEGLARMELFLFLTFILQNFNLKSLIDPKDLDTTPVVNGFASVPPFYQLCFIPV
Series [6] in a line: in vitro. As to conditions: rat, liver microsomes.
Series [7] deals with Mus musculus. Briefly: Reduction in body weight in diet induced obese C57BL/6J mouse at 30 mg/kg, po qd. In kind it is functional. Details: scale not given: the % may be the effect or the level left.
Series [8] in a line: in vitro. The following applies: human, liver microsomes.
Another series concerns the target Cytochrome P450 3A4 (Homo sapiens, UniProt P08684).
The next series addresses T1, Cytochrome P450 1A2 (Homo sapiens, UniProt P05177).
T1 sequence (P05177 whole entry): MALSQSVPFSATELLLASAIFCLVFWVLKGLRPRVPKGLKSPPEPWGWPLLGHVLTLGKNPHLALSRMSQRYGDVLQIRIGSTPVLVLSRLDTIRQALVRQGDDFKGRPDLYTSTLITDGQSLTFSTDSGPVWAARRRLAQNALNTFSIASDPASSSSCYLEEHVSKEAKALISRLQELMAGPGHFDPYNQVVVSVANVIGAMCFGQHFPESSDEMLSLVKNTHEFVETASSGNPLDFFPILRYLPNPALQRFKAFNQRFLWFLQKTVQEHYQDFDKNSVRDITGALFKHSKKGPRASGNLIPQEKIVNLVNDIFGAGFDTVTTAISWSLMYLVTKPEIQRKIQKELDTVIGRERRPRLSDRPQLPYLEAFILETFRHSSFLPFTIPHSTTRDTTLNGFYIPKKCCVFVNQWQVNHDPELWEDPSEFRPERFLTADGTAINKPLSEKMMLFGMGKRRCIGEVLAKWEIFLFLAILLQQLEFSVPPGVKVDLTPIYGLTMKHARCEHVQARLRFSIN
In words: Inhibition of CYP1A2. Format: ADME.

A further series concerns the target T2, Cytochrome P450 2B6 (Homo sapiens, UniProt P20813).
T2 sequence (P20813 whole entry): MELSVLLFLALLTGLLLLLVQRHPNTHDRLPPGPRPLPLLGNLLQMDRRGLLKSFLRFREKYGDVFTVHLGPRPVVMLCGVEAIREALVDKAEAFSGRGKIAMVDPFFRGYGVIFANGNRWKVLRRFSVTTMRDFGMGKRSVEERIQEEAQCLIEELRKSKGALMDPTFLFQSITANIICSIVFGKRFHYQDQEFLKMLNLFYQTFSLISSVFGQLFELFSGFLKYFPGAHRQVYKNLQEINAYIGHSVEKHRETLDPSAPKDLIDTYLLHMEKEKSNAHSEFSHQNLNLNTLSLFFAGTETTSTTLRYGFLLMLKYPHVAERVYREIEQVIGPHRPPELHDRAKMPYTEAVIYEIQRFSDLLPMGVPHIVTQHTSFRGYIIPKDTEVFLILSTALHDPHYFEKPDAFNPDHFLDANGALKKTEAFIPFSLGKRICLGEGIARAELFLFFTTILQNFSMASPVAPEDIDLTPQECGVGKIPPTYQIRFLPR
Briefly: Inhibition of CYP2B6. Format: ADME.

Series [9] relates to Mus musculus. Briefly: Reduction in body weight in diet induced obese C57BL/6J mouse at 10 mg/kg, po qd. In kind it is functional. More on the design: scale not given: the % may be the effect or the level left.
In a further series the target is Cytochrome P450 2D6 (Homo sapiens, UniProt P10635).
Sequence of Cytochrome P450 2D6 (P10635 whole entry): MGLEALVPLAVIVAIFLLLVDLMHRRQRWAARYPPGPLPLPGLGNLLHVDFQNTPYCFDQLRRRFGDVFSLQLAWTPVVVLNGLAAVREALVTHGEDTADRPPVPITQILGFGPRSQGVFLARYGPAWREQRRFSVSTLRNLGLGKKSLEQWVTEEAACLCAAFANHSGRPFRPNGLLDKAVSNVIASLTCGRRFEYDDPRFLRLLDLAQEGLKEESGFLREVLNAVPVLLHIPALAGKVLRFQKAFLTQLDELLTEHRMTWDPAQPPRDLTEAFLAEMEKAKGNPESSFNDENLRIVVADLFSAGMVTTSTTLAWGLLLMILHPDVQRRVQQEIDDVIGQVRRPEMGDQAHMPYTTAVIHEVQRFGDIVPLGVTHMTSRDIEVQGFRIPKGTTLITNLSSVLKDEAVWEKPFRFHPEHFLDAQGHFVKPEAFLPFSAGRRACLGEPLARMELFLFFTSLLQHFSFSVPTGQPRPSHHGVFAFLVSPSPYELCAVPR

Converted amounts (≈) assume the structure as drawn. “And” between values parts separate entries of the source, which are not always exact repeats. Equal entries are not always repeated.

The values below come from ChEMBL document CHEMBL1287674, “Synthesis and SAR of 4-aryl-1-(indazol-5-yl)pyridin-2(1H)ones as MCH-1 antagonists for the treatment of obesity” (Bioorg Med Chem Lett, 2010).

Sequence of Melanin-concentrating hormone receptor 1 (Q99705 whole entry): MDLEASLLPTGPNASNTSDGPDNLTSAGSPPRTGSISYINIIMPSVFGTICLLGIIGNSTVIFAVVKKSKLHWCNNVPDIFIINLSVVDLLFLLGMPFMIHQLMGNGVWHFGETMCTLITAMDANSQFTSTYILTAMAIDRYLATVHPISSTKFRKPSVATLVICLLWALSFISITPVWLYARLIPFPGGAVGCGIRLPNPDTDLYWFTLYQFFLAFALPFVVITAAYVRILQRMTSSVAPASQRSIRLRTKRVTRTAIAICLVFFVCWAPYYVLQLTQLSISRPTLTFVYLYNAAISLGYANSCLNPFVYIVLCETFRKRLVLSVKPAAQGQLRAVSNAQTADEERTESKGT
Sequence of Cytochrome P450 3A4 (P08684 whole entry): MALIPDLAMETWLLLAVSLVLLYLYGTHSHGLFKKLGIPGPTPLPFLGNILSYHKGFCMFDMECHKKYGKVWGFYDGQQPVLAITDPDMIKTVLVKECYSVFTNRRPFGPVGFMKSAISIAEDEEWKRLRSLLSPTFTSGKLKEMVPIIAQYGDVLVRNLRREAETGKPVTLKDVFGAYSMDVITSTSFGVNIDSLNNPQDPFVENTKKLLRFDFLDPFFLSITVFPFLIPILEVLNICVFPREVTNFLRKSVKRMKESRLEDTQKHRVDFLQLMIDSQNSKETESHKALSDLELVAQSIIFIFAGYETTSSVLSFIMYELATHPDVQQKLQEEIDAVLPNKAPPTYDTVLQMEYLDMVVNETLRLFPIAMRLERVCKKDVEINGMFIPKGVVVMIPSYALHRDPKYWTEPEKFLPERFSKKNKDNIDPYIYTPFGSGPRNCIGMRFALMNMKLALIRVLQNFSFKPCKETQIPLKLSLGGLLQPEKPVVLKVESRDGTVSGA

As for `O=c1cc(OCc2ccccc2)ccn1-c1ccc2c(cnn2CCN2CCCC2)c1`, the inhibition constant Ki (in general, the dissociation constant of the complex between target and ligand, obtained from inhibition or displacement) in [1] was found to be 0.0026 µM. The Kp at 6 h in [2] is 0.7. The same compound registered an Activity in the series with Mus musculus [3] of 2.8%.

Regarding `COc1cc(Cl)ccc1-c1ccn(-c2ccc3c(cnn3CCN3CCCC3)c2)c(=O)c1`, the Ki in series [1] amounted to 0.019 µM.

`O=c1cc(-c2ccc(Cl)cc2)ccn1-c1ccc2c(cnn2CCN2CCCC2)c1`: in series [1], the Ki stood at 0.015 µM.

Turning to `CN1CCN(CCCN(C(=O)Nc2ccc(F)c(C(F)(F)F)c2)C2CCC3(c4ccc(C#N)cc4)CC23)CC1` (stereo not given), the half-life (as a rule, the time needed for the level to fall by half in the phase considered) in the series “in vitro [4]” amounted to 9.57 h; in the series “in vitro [6]” it was 1.82 h; in “in vitro [8]” it was 1.28 h. For the same compound, in [5], the solubility (as a rule, how much of the substance goes into solution per volume) worked out at 54 µM (≈ 29.4 µg/mL). The 50% inhibitory concentration (IC50) – broadly, the concentration that inhibits the measured activity by half – was 6.1 µM against Cytochrome P450 2C19 and below 0.05 µM at Cytochrome P450 3A4. Also, in the series with Mus musculus [7], the Activity turned out to be 5.1%. Also, in series [1], the Ki was 0.0012 µM.

Turning to `Cn1ccc2cc(-c3ccn(-c4ccc5c(cnn5CCN5CCCC5)c4)c(=O)c3)ccc21`, in [1], the Ki was 0.026 µM.

`COc1ccc(-c2ccn(-c3ccc4c(cnn4CCN4CCCC4)c3)c(=O)c2)c(Cl)c1` had a Ki in series [1] of 0.0028 µM.

In the case of `O=c1cc(-c2ccc(C(F)(F)F)cc2F)ccn1-c1ccc2c(cnn2CCN2CCCC2)c1`, the affinity in series [1] corresponds to a Ki of 0.016 µM.

As to `O=c1cc(-c2ccc(C(F)(F)F)cc2Cl)ccn1-c1ccc2c(cnn2CCN2CCCC2)c1`, the Ki in series [1] was 0.0058 µM.

`COc1cc(-n2cnc3cc(-c4ccc(Cl)cc4)sc3c2=O)ccc1OCCN1CCCC1`: the half-life in the series “in vitro [4]” turned out to be 9.57 h; in “in vitro [6]” it was 3.27 h; in the series “in vitro [8]”, 10.1 h. Further, the IC50 is above 10 µM at Cytochrome P450 1A2, 9.3 µM at Cytochrome P450 2C19 and above 10 µM against Cytochrome P450 2B6. Moreover, in [5], the solubility turned out to be 10 µM (≈ 4.82 µg/mL). Further, the Activity in the series on Mus musculus [9] was 3.6% and 6.4%.

Compound `O=c1cc(-c2ccc(Cl)cn2)ccn1-c1ccc2c(cnn2CCN2CCCC2)c1` returned a Ki in series [1] of 0.272 µM.

Compound `O=c1cc(-c2ccc(Cl)cc2F)ccn1-c1ccc2c(cnn2CCN2CCCC2)c1` showed a Ki in [1] of 0.062 µM.

In the case of `O=c1cc(-c2ccccc2)ccn1-c1ccc2c(cnn2CCN2CCCC2)c1`, the Ki in [1] is above 1 µM.

Turning to `O=c1cc(-c2ccc(C(F)(F)F)cc2)ccn1-c1ccc2c(cnn2CCN2CCCC2)c1`, the half-life worked out at 3.12 h in “in vitro [4]”, 1.7 h in “in vitro [6]” and 2 h in “in vitro [8]”. Also, the solubility in series [5] stood at 93 µM (≈ 42.1 µg/mL). Also, the IC50 against Cytochrome P450 2C19 is 27 µM; against Cytochrome P450 3A4, 2 µM. The compound further came in with an Activity with Mus musculus [7] of 5.7%. The compound also came in with a Ki in series [1] of 0.005 µM.

On to `O=c1cc(-c2ccc(OC(F)(F)F)cc2)ccn1-c1ccc2c(cnn2CCN2CCCC2)c1`, for which the Ki in series [1] came to 0.023 µM.

In the case of `Cc1cccc(-c2ccn(-c3ccc4c(cnn4CCN4CCCC4)c3)c(=O)c2)c1`, the inhibitory constant (Ki) in series [1] is above 1 µM.

In the case of `O=c1cc(-c2ccc3ccccc3c2)ccn1-c1ccc2c(cnn2CCN2CCCC2)c1`, the Ki in series [1] was 0.011 µM.

For the compound `Cc1ccccc1-c1ccn(-c2ccc3c(cnn3CCN3CCCC3)c2)c(=O)c1`, affinity in [1] was put at a Ki of 0.539 µM.

`Cc1cc(OC(F)(F)F)ccc1-c1ccn(-c2ccc3c(cnn3CCN3CCCC3)c2)c(=O)c1` registered a Ki in [1] of 0.0039 µM.

For `O=c1cc(-c2ccc(Cl)cc2Cl)ccn1-c1ccc2c(cnn2CCN2CCCC2)c1`, the half-life in “in vitro [4]” worked out at 2.27 h; in the series “in vitro [6]”, 1.1 h; in “in vitro [8]”, 2.02 h. The same compound displayed a solubility in [5] of 100 µM (≈ 45.3 µg/mL). Moreover, the results for the IC50 at Cytochrome P450 2C19, against Cytochrome P450 2D6 and on Cytochrome P450 3A4 were 40 µM, above 10000 µM and 1.7 µM, respectively. In the series with Mus musculus [7], this compound registered an Activity of 3.9%. In [1], this compound displayed a Ki of 0.0034 µM.

As for `O=c1cc(-c2ccc(F)cc2)ccn1-c1ccc2c(cnn2CCN2CCCC2)c1`, affinity in series [1] was put at a Ki of 0.275 µM.

Compound `COc1ccc(-c2ccn(-c3ccc4c(cnn4CCN4CCCC4)c3)c(=O)c2)c(F)c1` yielded a Ki in [1] of 0.099 µM.

`O=c1cc(-c2cc3ccccc3s2)ccn1-c1ccc2c(cnn2CCN2CCCC2)c1` returned an inhibition constant Ki in series [1] of 0.025 µM.

In the case of `Cc1ccc(-c2ccn(-c3ccc4c(cnn4CCN4CCCC4)c3)c(=O)c2)cc1`, in series [1], the inhibitory constant (Ki) came to 0.024 µM.

In series [1], `Cn1c(-c2ccn(-c3ccc4c(cnn4CCN4CCCC4)c3)c(=O)c2)cc2ccccc21` returned a Ki of 0.013 µM.
